# Laboratory results: patent publication US7671054B1, “Reverse-turn mimetics and method relating thereto” (Choongwae Pharma Corporation, priority 2001, dated 2010)
# System: HCT116 cells
# Test: Growth inhibition assay (MTS)
# Type: cell-based
# Details: Homo sapiens, HCT-116, 48 h, Table 5; HCT116 cells, 48 hours treatment, MTS; read-out: Growth Inhibition (GI50, uM) HCT116
# Procedure: (§1) SW480 or HCT116 cells were placed into 96 well microplate (10^4cells/well) and incubated for 24 hours at 37° C. 20 μl of [3-(4,5-dimethylthiazol-2-yl)-5-(3-carboxyphenyl)-2-(4-sulfophenyl)-2H-tetrazolium, inner salt](MTS) solution (Promega) was added into each well and the absorbance after 2 hour incubation at 37° C. (negative control) was read. And then, the cells were treated with TCF4 compound at various concentrations for 48 hours. 20 μl of MTS solution (Promega) was added into each well and incubated for 2 hour at 37° C. Cell viability was measured by reading the absorbance at 490 nm using a microplate reader (Molecular device) and cytotoxicity of a compound at each concentration was calculated.
# as §1, with “a test” for “TCF4”
row,SMILES,GI50 [µM]
1,CN1CC(=O)N2[C@@H](Cc3ccc(O)cc3)C(=O)N(Cc3ccc4cnn(Cc5ccccc5N)c4c3)C[C@@H]2N1C(=O)NCc1ccccc1 [Compound 61],3.6 ± 0.3
2,C=CCN1CC(=O)N2[C@@H](Cc3ccc(O)cc3)C(=O)N(Cc3ccc(Cl)c(Cl)c3)C[C@@H]2N1C(=O)NCc1ccccc1 [Compound 150],1.4 ± 0.2
3,CN1CC(=O)N2C(CN(Cc3ccccc3Cl)C(=O)[C@@H]2Cc2ccc(O)cc2)N1C(=O)NCc1ccccc1 (stereo partly drawn) [Compound 15],1.34
4,C=CCN1CC(=O)N2[C@@H](Cc3ccc(O)cc3)C(=O)N(Cc3cccc4sc(C(=O)OCC)nc34)C[C@@H]2N1C(=O)NCc1ccccc1 [Compound 195],3 ± 0.3
5,C#CCN1CC(=O)N2[C@@H](Cc3ccc(O)cc3)C(=O)N(Cc3ccc(Cl)c4cccnc34)C[C@@H]2N1C(=O)NCc1ccccc1 [Compound 110],1.9 ± 0.1
6,C=CCN1CC(=O)N2[C@@H](Cc3ccc(O)cc3)C(=O)N(Cc3cccc4c3N(C)CCO4)C[C@@H]2N1C(=O)NCc1ccccc1 [Compound 117],0.3 ± 0.02
7,C=CCOC(=O)NCCCC[C@H]1C(=O)N(Cc2ccc(Cl)c(Cl)c2)C[C@H]2N1C(=O)CN(C)N2C(=O)NCc1ccccc1 [Compound 141],21 ± 2.6
8,C=CCN1CC(=O)N2[C@@H](Cc3ccc(O)cc3)C(=O)N(Cc3cccc(N4CCOCC4)c3)C[C@@H]2N1C(=O)NCc1ccccc1 [Compound 99],0.7 ± 0.1
9,C=CCN1CC(=O)N2[C@@H](Cc3ccc(O)cc3)C(=O)N(Cc3ccc4c(c3)OCCO4)C[C@@H]2N1C(=O)NCc1ccccc1 [Compound 157],1.2 ± 0.1
10,CN1CC(=O)N2[C@@H](Cc3ccc(O)cc3)C(=O)N(Cc3ccccc3C(F)(F)F)C[C@@H]2N1C(=O)NCc1ccccc1 [Compound 7],0.73
11,C=CCN1CC(=O)N2[C@@H](Cc3ccc(O)cc3)C(=O)N(Cc3cccc4c3OCO4)C[C@@H]2N1C(=O)NCc1ccccc1 [Compound 172],0.9 ± 0.1
12,CN1CC(=O)N2[C@@H](Cc3ccc(O)cc3)C(=O)N(Cc3cccc4cnn(Cc5cccc(N)c5)c34)C[C@@H]2N1C(=O)NCc1ccccc1 [Compound 67],0.3 ± 0.03
13,C=CCN1CC(=O)N2[C@@H](Cc3ccc(O)cc3)C(=O)N(Cc3cccc(N4CCCC4)c3)C[C@@H]2N1C(=O)NCc1ccccc1 [Compound 125],1.9 ± 0.2
14,C=CCN1CC(=O)N2[C@@H](Cc3ccc(O)cc3)C(=O)N(Cc3ccc4c(c3)OCCN4C)C[C@@H]2N1C(=O)NCc1ccccc1 [Compound 119],9.5 ± 1.1
15,C=CCN1CC(=O)N2[C@@H](Cc3ccc(O)cc3)C(=O)N(Cc3ccc(OC)cc3)C[C@@H]2N1C(=O)NCc1ccccc1 [Compound 178],1.5 ± 4.4
16,CN1CC(=O)N2[C@@H](Cc3ccc(O)cc3)C(=O)N(Cc3cccc(C(F)(F)F)c3)C[C@@H]2N1C(=O)NCc1ccccc1 [Compound 14],2.1

row,SMILES,GI50 [µM]
1,C#CCN1CC(=O)N2[C@@H](Cc3ccc(O)cc3)C(=O)N(Cc3ccc(Cl)c(N4CCOCC4)c3)C[C@@H]2N1C(=O)NCc1ccccc1 [Compound 112],4.7 ± 0.3
2,C=CCN1CC(=O)N2C(Cc3ccc(O)cc3)C(=O)N(Cc3ccc(F)cc3F)CC2N1C(=O)NCc1ccccc1 (stereo not drawn) [Compound 140],1.7 ± 0.1
3,CCN1CC(=O)N2[C@@H](Cc3ccc(O)cc3)C(=O)N(Cc3cccc(N4CCOCC4)c3)C[C@@H]2N1C(=O)NCc1ccccc1 [Compound 95],7.1 ± 1.2
4,C=CCN1CC(=O)N2[C@@H](Cc3ccc(O)c(F)c3)C(=O)N(Cc3ccc(F)cc3)C[C@@H]2N1C(=O)NCc1ccccc1 [Compound 156],3.8 ± 0.2
5,CN1CC(=O)N2[C@@H](Cc3ccc(O)cc3)C(=O)N(Cc3cccc4nnn(C)c34)C[C@@H]2N1C(=O)NCc1ccccc1 [Compound 52],9.7 ± 0.9
6,CCCN(C)c1cccc(CN2C[C@H]3N(C(=O)CN(C)N3C(=O)NCc3ccccc3)[C@@H](Cc3ccc(O)cc3)C2=O)c1 [Compound 34],6.4 ± 1.3
7,C=CCN1CC(=O)N2[C@@H](Cc3ccc(O)cc3)C(=O)N(Cc3ccc(F)cc3F)C[C@@H]2N1C(=O)NCc1ccc(Cl)c(Cl)c1 [Compound 149],2.3 ± 0.4
8,CCCN1CC(=O)N2[C@@H](Cc3ccc(O)cc3)C(=O)N(Cc3ccccc3)C[C@@H]2N1C(=O)NCc1ccccc1 [Compound 138],3.9 ± 0.7
9,C#CCN1CC(=O)N2[C@@H](Cc3ccc(O)cc3)C(=O)N(Cc3ccc(C)c(N4CCOCC4)c3)C[C@@H]2N1C(=O)NCc1ccccc1 [Compound 106],2.8 ± 0.4
10,CN1CC(=O)N2[C@@H](Cc3ccc(O)cc3)C(=O)N(Cc3cccc(N4CCCC4=O)c3)C[C@@H]2N1C(=O)NCc1ccccc1 [Compound 121],13.1 ± 0.6
11,CN1CC(=O)N2[C@@H](Cc3ccc(O)cc3)C(=O)N(Cc3ccc4cccnc4c3)C[C@@H]2N1C(=O)NCc1ccccc1 [Compound 70],7.2 ± 0.7
12,C=CCN1CC(=O)N2[C@@H](CN([C@H](C)c3ccc(Cl)c4cccnc34)C(=O)[C@@H]2Cc2ccc(O)cc2)N1C(=O)NCc1ccccc1 [Compound 159],8.2 ± 0.4
13,C=CCN1CC(=O)N2[C@@H](Cc3ccc(O)cc3)C(=O)N(Cc3ccc(F)cc3F)C[C@@H]2N1C(=O)NCc1ccc(F)cc1 [Compound 145],5.9 ± 0.3
14,C=CCN1CC(=O)N2[C@@H](Cc3ccc(O)cc3)C(=O)N(Cc3ccccc3)C[C@@H]2N1C(=O)NCc1ccccc1 [Compound 134],0.8 ± 0.7
15,CN(C)c1cc(Cl)ccc1CN1C[C@H]2N(C(=O)CN(C)N2C(=O)NCc2ccccc2)[C@@H](Cc2ccc(O)cc2)C1=O [Compound 24],1.67

# Same assay, conditions: Homo sapiens, HCT-116; Table 5; HCT116 cells, 48 hours treatment, MTS; read-out: Growth Inhibition (GI50, uM) HCT116
row,SMILES,GI50 [µM]
1,C=CCN1CC(=O)N2[C@@H](Cc3ccc(OP(=O)(O)O)cc3)C(=O)N(Cc3ccccc3)C[C@@H]2N1C(=O)NCc1ccccc1 [Compound 144],0.6 ± 0.1
2,C=CCN1CC(=O)N2[C@@H](Cc3ccc(OP(=O)(O)O)cc3)C(=O)N(Cc3cccc4scnc34)C[C@@H]2N1C(=O)NCc1ccccc1 [Compound 167],0.2 ± 0.02

# System: SW480 cells
# Test: Growth inhibition assay (MTS)
# Type: cell-based
# Details: Homo sapiens, SW480, 48 h, Table 5; SW480 cells, 48 hours treatment, MTS; read-out: Growth Inhibition (GI50, uM) SW480
# Procedure: as §1
# as §1, with “a test” for “TCF4”
row,SMILES,GI50 [µM]
1,CN1CC(=O)N2[C@@H](Cc3ccc(O)cc3)C(=O)N(Cc3ccc4cnn(Cc5ccccc5N)c4c3)C[C@@H]2N1C(=O)NCc1ccccc1 [Compound 61],11.3 ± 6
2,C=CCN1CC(=O)N2[C@@H](Cc3ccc(O)cc3)C(=O)N(Cc3ccc(Cl)c(Cl)c3)C[C@@H]2N1C(=O)NCc1ccccc1 [Compound 150],1.3 ± 0.1
3,CN1CC(=O)N2C(CN(Cc3ccccc3Cl)C(=O)[C@@H]2Cc2ccc(O)cc2)N1C(=O)NCc1ccccc1 (stereo partly drawn) [Compound 15],1.68
4,C=CCN1CC(=O)N2[C@@H](Cc3ccc(O)cc3)C(=O)N(Cc3cccc4sc(C(=O)OCC)nc34)C[C@@H]2N1C(=O)NCc1ccccc1 [Compound 195],3.1 ± 0.4
5,C#CCN1CC(=O)N2[C@@H](Cc3ccc(O)cc3)C(=O)N(Cc3ccc(Cl)c4cccnc34)C[C@@H]2N1C(=O)NCc1ccccc1 [Compound 110],2.1 ± 0.3
6,C=CCN1CC(=O)N2[C@@H](Cc3ccc(O)cc3)C(=O)N(Cc3cccc4c3N(C)CCO4)C[C@@H]2N1C(=O)NCc1ccccc1 [Compound 117],0.6 ± 0.1
7,C=CCOC(=O)NCCCC[C@H]1C(=O)N(Cc2ccc(Cl)c(Cl)c2)C[C@H]2N1C(=O)CN(C)N2C(=O)NCc1ccccc1 [Compound 141],35 ± 11
8,C=CCN1CC(=O)N2[C@@H](Cc3ccc(O)cc3)C(=O)N(Cc3cccc(N4CCOCC4)c3)C[C@@H]2N1C(=O)NCc1ccccc1 [Compound 99],1 ± 0.05
9,C=CCN1CC(=O)N2[C@@H](Cc3ccc(O)cc3)C(=O)N(Cc3ccc4c(c3)OCCO4)C[C@@H]2N1C(=O)NCc1ccccc1 [Compound 157],1 ± 0.2
10,CN1CC(=O)N2[C@@H](Cc3ccc(O)cc3)C(=O)N(Cc3ccccc3C(F)(F)F)C[C@@H]2N1C(=O)NCc1ccccc1 [Compound 7],1.22
11,C=CCN1CC(=O)N2[C@@H](Cc3ccc(O)cc3)C(=O)N(Cc3cccc4c3OCO4)C[C@@H]2N1C(=O)NCc1ccccc1 [Compound 172],0.8 ± 0.1
12,CN1CC(=O)N2[C@@H](Cc3ccc(O)cc3)C(=O)N(Cc3cccc4cnn(Cc5cccc(N)c5)c34)C[C@@H]2N1C(=O)NCc1ccccc1 [Compound 67],0.6 ± 0.2
13,C=CCN1CC(=O)N2[C@@H](Cc3ccc(O)cc3)C(=O)N(Cc3cccc(N4CCCC4)c3)C[C@@H]2N1C(=O)NCc1ccccc1 [Compound 125],2.2 ± 0.3
14,C=CCN1CC(=O)N2[C@@H](Cc3ccc(O)cc3)C(=O)N(Cc3ccc4c(c3)OCCN4C)C[C@@H]2N1C(=O)NCc1ccccc1 [Compound 119],10 ± 1.3
15,C=CCN1CC(=O)N2[C@@H](Cc3ccc(O)cc3)C(=O)N(Cc3ccc(OC)cc3)C[C@@H]2N1C(=O)NCc1ccccc1 [Compound 178],1.6 ± 0.2
16,CN1CC(=O)N2[C@@H](Cc3ccc(O)cc3)C(=O)N(Cc3cccc(C(F)(F)F)c3)C[C@@H]2N1C(=O)NCc1ccccc1 [Compound 14],2.7

row,SMILES,GI50 [µM]
1,C#CCN1CC(=O)N2[C@@H](Cc3ccc(O)cc3)C(=O)N(Cc3ccc(Cl)c(N4CCOCC4)c3)C[C@@H]2N1C(=O)NCc1ccccc1 [Compound 112],5.1 ± 0.5
2,C=CCN1CC(=O)N2C(Cc3ccc(O)cc3)C(=O)N(Cc3ccc(F)cc3F)CC2N1C(=O)NCc1ccccc1 (stereo not drawn) [Compound 140],1.6 ± 0.5
3,CCN1CC(=O)N2[C@@H](Cc3ccc(O)cc3)C(=O)N(Cc3cccc(N4CCOCC4)c3)C[C@@H]2N1C(=O)NCc1ccccc1 [Compound 95],16.2 ± 2.6
4,C=CCN1CC(=O)N2[C@@H](Cc3ccc(O)c(F)c3)C(=O)N(Cc3ccc(F)cc3)C[C@@H]2N1C(=O)NCc1ccccc1 [Compound 156],3.7 ± 0.3
5,CN1CC(=O)N2[C@@H](Cc3ccc(O)cc3)C(=O)N(Cc3cccc4nnn(C)c34)C[C@@H]2N1C(=O)NCc1ccccc1 [Compound 52],19.3 ± 2.1
6,CCCN(C)c1cccc(CN2C[C@H]3N(C(=O)CN(C)N3C(=O)NCc3ccccc3)[C@@H](Cc3ccc(O)cc3)C2=O)c1 [Compound 34],13.8 ± 2.4
7,C=CCN1CC(=O)N2[C@@H](Cc3ccc(O)cc3)C(=O)N(Cc3ccc(F)cc3F)C[C@@H]2N1C(=O)NCc1ccc(Cl)c(Cl)c1 [Compound 149],2.3 ± 0.1
8,CCCN1CC(=O)N2[C@@H](Cc3ccc(O)cc3)C(=O)N(Cc3ccccc3)C[C@@H]2N1C(=O)NCc1ccccc1 [Compound 138],4 ± 0.4
9,C#CCN1CC(=O)N2[C@@H](Cc3ccc(O)cc3)C(=O)N(Cc3ccc(C)c(N4CCOCC4)c3)C[C@@H]2N1C(=O)NCc1ccccc1 [Compound 106],4.5 ± 0.3
10,CN1CC(=O)N2[C@@H](Cc3ccc(O)cc3)C(=O)N(Cc3cccc(N4CCCC4=O)c3)C[C@@H]2N1C(=O)NCc1ccccc1 [Compound 121],8.2 ± 0.5
11,CN1CC(=O)N2[C@@H](Cc3ccc(O)cc3)C(=O)N(Cc3ccc4cccnc4c3)C[C@@H]2N1C(=O)NCc1ccccc1 [Compound 70],7.4 ± 0.6
12,C=CCN1CC(=O)N2[C@@H](CN([C@H](C)c3ccc(Cl)c4cccnc34)C(=O)[C@@H]2Cc2ccc(O)cc2)N1C(=O)NCc1ccccc1 [Compound 159],9.1 ± 0.5
13,C=CCN1CC(=O)N2[C@@H](Cc3ccc(O)cc3)C(=O)N(Cc3ccc(F)cc3F)C[C@@H]2N1C(=O)NCc1ccc(F)cc1 [Compound 145],6.4 ± 0.1
14,C=CCN1CC(=O)N2[C@@H](Cc3ccc(O)cc3)C(=O)N(Cc3ccccc3)C[C@@H]2N1C(=O)NCc1ccccc1 [Compound 134],1.4 ± 0.4
15,CN(C)c1cc(Cl)ccc1CN1C[C@H]2N(C(=O)CN(C)N2C(=O)NCc2ccccc2)[C@@H](Cc2ccc(O)cc2)C1=O [Compound 24],13.8

# Same assay, conditions: Homo sapiens; Table 5; SW480 cells, 48 hours treatment, MTS; read-out: Growth Inhibition (GI50, uM) SW480
row,SMILES,GI50 [µM]
1,C=CCN1CC(=O)N2[C@@H](Cc3ccc(OP(=O)(O)O)cc3)C(=O)N(Cc3ccccc3)C[C@@H]2N1C(=O)NCc1ccccc1 [Compound 144],0.5 ± 0.03
2,C=CCN1CC(=O)N2[C@@H](Cc3ccc(OP(=O)(O)O)cc3)C(=O)N(Cc3cccc4scnc34)C[C@@H]2N1C(=O)NCc1ccccc1 [Compound 167],0.3 ± 0.02
